Measured values published in patent US9908877B2, “Imidazo[1,5-a]pyridinium ion fluorophores, and methods of making and using the same” (Indiana University Research and Technology Corporation, priority 2013, dated 2018).

How the values were obtained:
Assay type in all cases: physicochemical
[1] = Ultraviolet-visible light spectrum (maximum absorbance wavelength)
Procedure: Method for Obtaining an Ultraviolet-Visible Light Spectrum
Ultraviolet-visible (UV-Vis) Light spectra are obtained and recorded on an Agilent 8453 spectrophotometer using ChemStation software (Agilent Technologies, Inc., Santa Clara, Calif.).
(§1) The compounds were analyzed at 298° K according to the Method for Obtaining Ultraviolet-Visible Light Spectrum (30 μM acetonitrile) to obtain the maximum absorbance wavelength (λabs,max), Method for Obtaining Fluorescence Emission Spectrum (30 μM acetonitrile) to obtain the maximum emission wavelength (λem,max) and Method for Determining Quantum Yield (ΦF) (30 μM acetonitrile) at the concentration, in the solvent, and with the counter ion indicated in Table 1. The compounds included hydrogen at each R group that is not otherwise specified.
(§2) Compounds 6, 7, 9, 11-14 and 21 were analyzed according to: the Method for Obtaining Ultraviolet-Visible Light Spectrum to obtain the maximum absorbance wavelength (λabs,max), the Method for Obtaining Fluorescence Emission Spectrum to obtain the maximum emission wavelength (λem,max), and the Method for Determining Quantum Yield (ΦF) in the solvent and with the counter ion indicated in Table 3.

[2] = Fluorescence emission spectrum (maximum emission wavelength)
Procedure: Method for Obtaining a Fluorescence Emission Spectrum
Fluorescence emission spectra are obtained and recorded on a QM-4-CW Spectrofluorometer using FeliX32 software (Photon Technology International, Inc., Birmingham, N.J.).
as §1, §2

[3] = Fluorescence quantum yield, integrating sphere
Procedure: Method for Determining Quantum Yield
Quantum yield is determined using an integrating sphere attached to a QM-4-CW Spectrofluorometer using FeliX32 software (Photon Technology International).
as §1, §2

[4] = Fluorescence response to pH in buffered water; details: for fluorescence emission in water at pH 7.5: water pH 7.5
Procedure: Stock solutions of each compound (having a concentration of from 1-5 mM) were prepared by dissolving the corresponding salts of the compounds in methanol or 1V, N-dimethylformamide, and then diluting the same with acetonitrile or buffered water having a pH of from 2.5 to 7.5 derived from 0.2 M […] and 0.1 M citric acid, to achieve a sample solution having a compound concentration of 30.0 μM.
The emission spectrum for each sample was obtained. The results are illustrated by the plot in FIG. 2A.
The emission spectrum for each sample was obtained. […] The results are illustrated in the plot of FIG. 2B.
The fluorescence emission spectrum of Compound 8 in water having a pH of 2.5 was also obtained and is illustrated by the curved line with a peak at 360 nm in FIG. 5B.
Compounds 10, 11, and 12 were each individually added, at a concentration of 30 μM, to water having a pH=7.5 and the emission spectra of each were obtained. […] As the pH was decreased from 7.5 to 2.5 in 0.5 pH unit increments, fluorescence emission at 600 nm remained relatively nonexistent and the intensity of the fluorescence emission at 400 nm increased in correlation to the decrease in pH. FIG. 8A illustrates the emission properties of Compound 12.

[5] = Fluorescence response to pH in buffered water; details: 10 μM in water, pH = 7.5
[6] = pKa from fluorescence intensity versus pH; details: non-linear regression of fluorescence intensity versus pH, buffered water pH 2.5 to 7.5
Procedure: Method for Determining pKa
A pKa value is determined by plotting fluorescence intensity (Imax) at emission maxima against pH and fitting the result to the non-linear expression in equation (1) (i.e., eq.(1)). In eq (1), a and b are the molar coefficient of the acid (HA) and base (A^−) form, respectively, and c is the combined overall concentration of the acid and base form. i.e., c=[HA]+[A^−].

[7] = Fluorescence response to trifluoroacetic acid / DBU in acetonitrile
Procedure: A 30 μM solution of Compound 6 in acetonitrile was prepared by adding 99 μL of a stock solution of 3.04 mM Compound 6 in methanol to 10 mL of acetonitrile. An initial fluorescence emission spectrum of the solution was obtained and is illustrated by curve (i) in FIG. 1A.
A series of approximately 13.8 μL aliquots of trifluoroacetic acid (TFA) were then added to the 30 μM solution of Compound 6 until a total concentration of 60.0 mM of TFA was present in the solution. (The total amount of TFA present in the solution corresponded to 2000 equivalents of acid per equivalent of Compound 6.) The fluorescence emission spectrum of the resulting solution was obtained and is illustrated by curve (ii) in FIG. 1A.
A base, i.e., 1,8-diazabicyclo[5.4.0]undec-7-ene (DBU), was then added to the solution to neutralize the acid until a concentration of 90 mM DBU was obtained. The fluorescence emission spectrum of the resulting solution was obtained and is illustrated by curve (iii) in FIG. 1A. The fluorescence emission intensity at λem,max=565 nm increased as the amount of base present in the system increased and the fluorescence emission intensity at λem,max=405 nm decreased as the amount of base present in the system increased, which reflected Compound 6's ratiometric response to the changing base concentration in acetonitrile.
A 30 μM solution of Compound 7 in acetonitrile was prepared by adding 84 μL of a stock solution of 3.58 mM Compound 7 in methanol to 10 mL of acetonitrile. The emission spectrum of the solution was then obtained and is illustrated by curve (i) in FIG. 1B.
A series of approximately 13.8 μL aliquots of TFA were then added to the 30 μM solution of Compound 7 until a total concentration of 60.0 mM TFA was present in the solution (which corresponded to 2000 equivalents of acid per equivalent of Compound 7). The fluorescence emission spectrum of the solution was obtained and is illustrated by curve (ii) in FIG. 1B.
After the 60 mM TFA concentration was achieved, DBU was gradually added to the solution until a total concentration of 90 mM DBU was present in the solution. The fluorescence spectrum of the solution was obtained and is illustrated by curve (iii) in FIG. 1B.
An aliquot of 50 μL of trifluoroacetic acid was then added to the system, and the fluorescence emission spectrum was obtained and is illustrated by the curved line with a peak at 360 nm in FIG. 6A.
Compound 10 was placed in neat acetonitrile and its emission spectrum was monitored as trifluoroacetic acid was added to the acetonitrile in incremental amounts to achieve a solution that included an acid concentration ranging from 0 to 0.2 M. After each acid addition the sample was excited with radiation of a wavelength 340 nm, and its fluorescence emission spectrum was monitored. The results are illustrated in FIG. 7A.
The solution of Compound 10 in acetonitrile was titrated with trifluoroacetic acid (TFA). […] The first stage, which occurred with the addition of the initial aliquots of TFA, was a slight increase intensity at 580 nm, as illustrated in FIG. 7A. As more TFA was added to the system, a second transition occurred in which the emission at 580 nm began to decrease and as the emission at 400 nm began to increase, as illustrated in FIG. 7B. A plot of the emission intensity at 580 nm versus pH and at 400 nm versus pH is illustrated in FIG. 7C.
Compounds 10, 11, and 12 were then each individually added, at a concentration of 30 μM, to acetonitrile and the emission spectrum of each was monitored. The compounds emitted at 600 nm with an intensity of about 7.57×10^5 arbitrary units (a.u.) in neat acetonitrile. […] FIG. 8B illustrates the emission properties of Compound 12.

[8] = Fluorescence response to hydrophobic environment (acetonitrile in water, SDS)
Procedure: Compound 12 was placed in water and the intensity of its fluorescence emission at 600 nm was monitored as the concentration of acetonitrile was increased from 0 volume to volume (v/v) % to 100 v/v % in increments of 10 v/v %.
Compound 12 was added to an aqueous solution of sodium dodecylsulfate (SDS) and monitored for fluorescence emission at 600 nm.

[9] = 30 μM acetonitrile, 298 K, Table 1

## CCN(CC)c1ccc(-n2cc3cccc[n+]3c2)cc1 [Compound 2, 2-(4-(diethylamino)phenyl)-2H-imidazo[1,5-a]pyridin-4-ium hexafluorophosphate]
[1]; [9]
  λabs, max Abs: 330 nm
[2]; [9]
  λem, max Em: 515 nm
[3]; [9]
  ΦF (quantum yield): 30%
[4]; Example 13B: pH decreased to 2.5
  fluorescence λem: 360-375 nm
[4]; Example 13B: printed 'neat acetonitrile having a pH of 7.5' / 'pH=7.5 in water'
  emission maxima λem: 550 nm
[4]; water, pH 2.5
  fluorescence λem: 360-375 nm
[5]
  emission maxima λem: 550 nm

## CCN(CC)c1ccc(-n2c[n+]3ccccc3c2-c2ccc(OC)cc2)cc1.[Cl-] [Compound 7, 2-(4-(diethylamino)phenyl)-1-(4-methoxyphenyl)-2H-imidazo[1,5-a]pyridin-4-ium chloride]
[1]; H2O pH = 2.5, 30 μM
  λabs, max Abs: 340 nm
[1]; H2O pH = 7.5, 30 μM
  λabs, max Abs: 340 nm
[1]; MeCN + 13.8 uL TFA, 30 μM
  λabs, max Abs: 340 nm
[1]; MeCN, 30 μM
  λabs, max Abs: 340 nm
[2]; H2O pH = 2.5, 30 μM
  λem, max Em: 450 nm
[2]; MeCN + 13.8 uL TFA, 30 μM
  λem, max Em: 450 nm
[3]; 30 μM in acetonitrile with 60.0 mM TFA
  ΦF (quantum yield): 42%
[3]; 30 μM in acetonitrile, no acid, excited at 340 nm
  quantum yield (ΦF): 0.06%
[3]; H2O pH = 2.5, 30 μM
  […]F (quantum yield): 42%
[3]; H2O pH = 7.5, 30 μM
  […]F (quantum yield): 0%
[3]; MeCN + 13.8 uL TFA, 30 μM
  […]F (quantum yield): 57%
[3]; MeCN, 30 μM
  […]F (quantum yield): 0%
[6]
  pKa: 4.4
[7]; 30 μM in acetonitrile after addition of 60.0 mM TFA
  increase in cyan fluorescent intensity: approximately 700 fold
[7]; 30 μM in acetonitrile in the presence of trifluoroacetic acid (60.0 mM TFA)
  λem,max (fluorescence emission): 450 nm
[7]; acetonitrile without acid
  fluorescence emission in neat acetonitrile: essentially non-emissive
[7]; acetonitrile, 60 mM TFA then 90 mM DBU
  fluorescence intensity after base: returned to zero
[4]; buffered water, 298 K, pH from 7.5 to 2.5
  λem,max of the emission that increases as pH decreases: 450 nm
[4]
  fluorescence emission in water at pH 7.5: essentially non-emissive

## CCN(CC)c1ccc(-n2cc3cccc(-c4cn(-c5ccc(C)cc5)nn4)[n+]3c2)cc1.[Cl-] [Compound 12, 2-(4-(diethylamino)phenyl)-5-(1-(p-tolyl)-1H-1,2,3-triazol-4-yl)-2H-imidazo[1,5-a]pyridin-4-ium chloride]
[1]; H2O pH = 2.2, 30 μM
  λabs, max Abs: 340 nm
[1]; H2O pH = 7.5, 30 μM
  λabs, max Abs: 340 nm
[1]; MeCN + 50 μL TFA, 30 μM
  λabs, max Abs: 340 nm
[1]; MeCN, 30 μM
  λabs, max Abs: 340 nm
[2]; H2O pH = 2.2, 30 μM
  λem, max Em: 400 nm
[2]; MeCN + 50 μL TFA, 30 μM
  λem, max Em: 400 nm
[2]; MeCN, 30 μM
  λem, max Em: 600 nm
[3]; H2O pH = 2.2, 30 μM
  […]F (quantum yield): 66%
[3]; H2O pH = 7.5, 30 μM
  […]F (quantum yield): 0%
[3]; MeCN + 50 μL TFA, 30 μM
  […]F (quantum yield): 57%
[3]; MeCN, 30 μM
  […]F (quantum yield): 30%
[7]; 30 μM in acetonitrile + 50 μL trifluoroacetic acid
  emission intensity at 400 nm: 1.34×10^6 a.u.
[7]; 30 μM in neat acetonitrile
  emission intensity at 600 nm: about 7.57×10^5 arbitrary units (a.u.)
  emission wavelength: 600 nm
[7]; acetonitrile + 50 μL trifluoroacetic acid
  emission wavelength λem,max: 400 nm
[4]
  fluorescence emission in water at pH 7.5: essentially no fluorescence emission
[8]; 100 v/v % acetonitrile
  fluorescence intensity at 600 nm: 6.48×10^5 a.u.
[8]; water, 0 v/v % acetonitrile
  fluorescence intensity at 600 nm: 7.81×10^3 a.u.
